Counter-ions that a name gives are not always drawn. Like-named read-outs stand apart in the source and are kept apart here.
Columns and labels:
Mac-1 (CD11b/CD18) = conditions: for Mac-1 expression on PMNs, other GSL: 100 nmol/L, 20 minutes
GalT-2 [1] = experiment: GalT-2 activity in endothelial cells; format: cell-based, human
Protocol: Particularly preferred are GalT-2 assays conducted with the ASMCs and performed in accordance with previously described methods. See e.g., Chatterjee, S., and Castiglione, E. (1987) Biochem. Biophys. Acta, 923:136; and Chatterjee, (1991) S. Biochem. Biophys. Res Comm., 181:554.
Another preferred assay of the invention includes the following steps a) through d):
a) culturing a population of LacCer-responsive cells preferably to confluency in lipoprotein-deficient serum medium, e.g., about 1 mg lipoprotein-deficient serum/protein/ml of medium or less;
b) harvesting the cells preferably in a suitable dispersive buffer, e.g., cacodylate buffer,
c) incubating the harvested cells preferably with a detectably labeled molecule such as a detectably-labeled nucleoside diphosphate sugar donor such as [^14 C]-UDP-galactose typcially in an amount between about 0. 1 to 100 μCi; and
d) measuring LacCer formation as indicative of the activity of the GalT-2 enzyme.

ICAM-1 = conditions: for effect on LacCer mediated stimulation of ICAM-1 expression: 5 μM LacCer 4 hours, DPI 10 μM 30 minutes, NAC 15 mM 30 minutes, PDTC 100 μM 1 hour
intimal proliferation = experiment: Intimal proliferation following balloon angioplasty in rabbits (aorta histology); format: in vivo; conditions: rabbit aorta; 10 mg/kg intramuscular daily for six weeks after balloon angioplasty
Source text: A rabbit model of restenosis accompanying an invasive surgical procedure such as balloon angioplasty is preferred. One suitable protocol involves administering to the rabbit a suitable vehicle or vehicle combined with one or more GalT-2 inhibitor compounds of interest. The amount of the GalT-2 inhibitor compound administered will vary depending on several parameters including the extent of damage associated with the surgical procedure of interest. In instances where balloon angioplasty is employed, the rabbit will typically receive a candidate GalT-2 inhibitor compound in a dose (e.g., i.m. or i.p.) of between about 0.5 to 100, preferably 1 to 20 and more preferably about 10 mg/kg body weight of the rabbit. A preferred dosage schedule provides for administration of a GalT-2 inhibitor compound starting 24 hurs prior to conducting an invasive surgical procedure, and then continuing administration of the GalT-2 inhibitor compound for 15 days following the surgical procedure. In other protocols, daily injections of the GalT-2 inhibitor compound may be made for about 2 to 12 weeks following the invasive surgical procedure. […] Subsequently, the rabbits are euthanized and a vessel removed for examination, preferably the aorta The vessel is then fixed with formalin and analyzed for proliferation of vascular endothelia, media and advantitia using standard histological procedures. […]

GlcCer, LacCer = experiment: Glycosphingolipid levels (HPLC) in thoracic aorta of balloon angioplasty rabbits; format: in vivo; conditions: rabbit thoracic aorta
Protocol: (§1) Experiments were performed on rabbits to examine the effects of D-PDMP on aortic stenosis following balloon angioplasty. The rabbits were given intramuscular injection of D-PDMP (10 mg/kg) or vehicle 24 hours prior to balloon angioplasty and this regimen was continued for 15 days. Next, the thoracic aorta was harvested, the glycosphingolipids was measured by HPLC analysis, and GalT-2 activity was measured employing assays described above.

GalT-2 [2] = experiment: GalT-2 activity in thoracic aorta of balloon angioplasty rabbits; format: in vivo; conditions: rabbit thoracic aorta; 10 mg/kg intramuscular, 15 days
Protocol: as §1

GlcT-1 = target: T1, GlcT-1 (Homo sapiens, UniProt Q16739); conditions: reported in literature; cited from earlier work
T1 sequence (Q16739 1-394): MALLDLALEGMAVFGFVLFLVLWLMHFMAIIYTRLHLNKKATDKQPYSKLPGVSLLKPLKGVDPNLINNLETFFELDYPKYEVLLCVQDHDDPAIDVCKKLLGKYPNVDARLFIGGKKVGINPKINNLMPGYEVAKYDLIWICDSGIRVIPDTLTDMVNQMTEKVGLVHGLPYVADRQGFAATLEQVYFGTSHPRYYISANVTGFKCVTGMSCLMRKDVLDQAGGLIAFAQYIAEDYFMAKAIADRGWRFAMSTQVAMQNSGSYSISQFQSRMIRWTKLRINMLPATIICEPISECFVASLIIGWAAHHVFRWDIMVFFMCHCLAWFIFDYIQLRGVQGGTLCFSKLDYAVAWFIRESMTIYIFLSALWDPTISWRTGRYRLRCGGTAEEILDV

vascular cells = conditions: reported in literature; cited from earlier work
Eahy 926 cells = experiment: Superoxide production by intact Eahy 926 (lucigenin chemiluminescence); format: cell-based, human; conditions: 5 μM LacCer; DPI 10 μM 30 minutes, NAC 15 mM 30 minutes, SOD exogenously added (200 U/ml), allopurinol
PMNs [3] = experiment: Superoxide generation in PMNs (lucigenin); format: cell-based, human; conditions: SOD 500 U/ml, DPI 10 μM/L, apocyanin 90 μmol/L, about 15 minutes preincubation; 100 nmol LacCer 20 minutes
[4] = test system: neutrophil adhesion to Eahy 926 cells; experiment: Confocal microscopic study of adhesion of human neutrophils to Eahy 926 endothelial cells; format: cell-based; conditions: endothelial cells preincubated with 10 μM DPI or 15 mM NAC 30 minutes, then 5 μM LacCer 4 hours
PMNs [5] = experiment: ROM generation by PMNs (DCFH-DA); format: cell-based, human; conditions: 100 or 200 nmol/L LacCer
[6] = test system: PMN adhesion to unstimulated endothelial cells; experiment: PMN-endothelial adhesion assay; format: cell-based, human; conditions: 100 nmol/L LacCer; anti-CD18 5 μg/ml; quinacrine increasing doses
Protocol: 12. PMN-Endothelial Adhesion Assay. PMNs were labeled fluorescently by incubation with 5 μmol/L Calcein-AM (Molecular Probes) in calcium-free PBS for 20 minutes at 37° C., washed and resuspended in Hanks' balanced salt solution (Gibco) containing 0.2% bovine serum albumin (BSA). These PMNs were then treated with LacCer (or vehicle, 0.05% DMSO), washed 3 times with PBS and then plated on the unstimulated ec monolayers, which had been grown to confluence in 24-well plates. The PMNs (600 μL of 2×10^6 /mL/well) then were incubated with the ecs for 30 minutes at 37° C. Non-adherent PMNs were then removed by gentle washing 3 times with PBS. The residual adherent PMNs (and ecs) were then lysed using 4mmol/L Zwittergent Calbiochem, La Jolla, Calif.) and the plates read on a fluorescence plate reader (Millipore) at EX 480 nm/EM 530 nm. The number of adherent PMNs were expressed as number of PMN/mm^2 ec monolayer, based on the mean fluorescent intensity of each PMN, as determined from a standard curve. 13. Additional Methods. LacCer, ceramide and […] (all from Sigma) were prepared as described in examples below, and used as putative agonists for the stimulation of PMN adhesion molecule expression, assayed by FACScan. […]

[7] = endothelial cells, TNF-α as stimulant
[8] = balloon angioplasty, 10 mg/kg intramuscular from 24 hours prior, continued for 15 days
[9] = endothelial cells preincubated with D-PDMP
[10] = inhibitor 20 minutes, then 100 nmol/L LacCer 20 minutes, BPB 10 μmol/L

glucosylceramide [GIcCer]
Mac-1 expression on PMNs, other GSL (Mac-1 (CD11b/CD18)): did not alter

TNF-α
increase in GalT-2 activity (GalT-2 [1]; [7]): 1.7 fold | stimulation of ICAM-1 expression (ICAM-1; [7]): concentration-dependent stimulation

CCCCCCCCCC(=O)N[C@H](CN1CCOCC1)[C@H](O)c1ccccc1 [D-PDMP, (1R, 2R)-1-phenyl-2-decanoylamino-3-morpholino-1-propanol]
intimal proliferation at the site of balloon angioplasty (intimal proliferation): complete absence of intimal proliferation | level of GicCer and LacCer (GlcCer, LacCer; 10 mg/kg intramuscular, 15 days): decrease significantly | GSL Concentration GlcCer (GlcCer, LacCer; [8]): 6 μg/gm wet weight | GSL Concentration LacCer (GlcCer, LacCer; [8]): 10 μg/gm wet weight | decrease of GalT-2 activity versus vehicle (GalT-2 [2]): ~ 1.7 fold | GalT-2 activity induced by TNF-α (GalT-2 [1]; [9]): concentration-dependent decrease | ICAM-1 expression induced by TNF-α (ICAM-1; [9]): concentration-dependent decrease | inhibition of GlcT-1 (GlcT-1): inhibits | proliferation of vascular cells (vascular cells): reduces

Oc1ncnc2[nH]ncc12 [allopurinol]
effect on LacCer induced generation of O2- in endothelial cells (Eahy 926 cells): failed to inhibit

C=C(C)[C@H]1Cc2c(ccc3c2O[C@@H]2COc4cc(OC)c(OC)cc4[C@@H]2C3=O)O1 [rotenone]
effect on NADPH oxidase activity in membrane preparations of LacCer stimulated cells (NADPH oxidase; DPI 10 μM 30 minutes, rotenone 1 mM): did not inhibit

ceramide
Mac-1 expression on PMNs, other GSL (Mac-1 (CD11b/CD18)): did not alter

Cc1nnc2n1-c1sc(CCC(=O)N3CCOCC3)cc1C(c1ccccc1Cl)=NC2 [WEB 2086]
effect on LacCer-stimulated Mac-1 upregulation on PMNs (Mac-1 (CD11b/CD18)): No significant inhibition

c1ccc2c(c1)[I+]c1ccccc1-2 [DPI, diphenyleneiodonium chloride]
effect on LacCer induced superoxide generation in PMNs (PMNs [3]): relatively less inhibitory | effect on LacCer-stimulated Mac-1 upregulation on PMNs (Mac-1 (CD11b/CD18)): did not inhibit | effect on LacCer-induced neutrophil adhesion [4]: attenuated | effect on LacCer mediated stimulation of ICAM-1 expression (ICAM-1): inhibited | effect on LacCer induced generation of O2- in endothelial cells (Eahy 926 cells): failed to respond | effect on NADPH oxidase activity in membrane preparations of LacCer stimulated cells (NADPH oxidase): attenuated | effect on neutrophil ROM generation induced by LacCer (PMNs [5]): completely blocked

O=c1c(-c2ccc(O)cc2)coc2cc(O)cc(O)c12 [genistein]
effect on LacCer-stimulated Mac-1 upregulation on PMNs (Mac-1 (CD11b/CD18); [10]): did not inhibit

CC(=O)N[C@@H](CS)C(=O)O [NAC, N-acetylcysteine]
effect on LacCer-stimulated Mac-1 upregulation on PMNs (Mac-1 (CD11b/CD18); [10]): did not inhibit | effect on LacCer-induced neutrophil adhesion [4]: attenuated | effect on LacCer mediated stimulation of ICAM-1 expression (ICAM-1): inhibited | effect on LacCer induced generation of O2- in endothelial cells (Eahy 926 cells): reduced | effect on neutrophil ROM generation induced by LacCer (PMNs [5]): inhibited

CCN(CC)CCCC(C)Nc1c2ccc(Cl)cc2nc2ccc(OC)cc12 (centres unmarked) [quinacrine, quinacrine dihydrochloride]
effect on LacCer induced PMN adhesion [6]: inhibited | effect on LacCer-stimulated Mac-1 upregulation on PMNs (Mac-1 (CD11b/CD18); [10]): did block

CC(=O)OCOC(=O)CN(CC(=O)OCOC(C)=O)c1ccccc1OCCOc1ccccc1N(CC(=O)OCOC(C)=O)CC(=O)OCOC(C)=O [BAPTA/AM]
effect on LacCer-stimulated Mac-1 upregulation on PMNs (Mac-1 (CD11b/CD18); [10]): did not inhibit

COc1cc(C(C)=O)ccc1O [apocyanin]
effect on LacCer induced superoxide generation in PMNs (PMNs [3]): relatively less inhibitory

S=C(S)N1CCCC1 [PDTC]
effect on LacCer mediated stimulation of ICAM-1 expression (ICAM-1): inhibited

CN[C@@H]1C[C@H]2O[C@@](C)([C@@H]1OC)n1c3ccccc3c3c4c(c5c6ccccc6n2c5c31)C(=O)NC4 [staurosporine]
effect on LacCer-stimulated Mac-1 upregulation on PMNs (Mac-1 (CD11b/CD18)): did not inhibit

Source: patent US6228889A, “Methods for treatment of conditions associated with lactosylceramide” (priority 1999, dated 2001)
